Test results as given in patent US20050197350A1, “Novel quinoline, tetrahydroquinazoline, and pyrimidine derivatives and methods of treatment related to the use thereof” (TAISHO PHARMACEUTICAL CO., LTD., priority 2003, published 2005).

system: MCH receptors; experiment: MCH receptor activity class (method not given); settings: class by percent of control at 10^-7 M or IC50

Compound | class
Cc1cc(Br)ccc1NC(=O)N[C@H]1CC[C@@H](Nc2cc(N(C)C)c3ccccc3n2)CC1 [compound 2159] | 2 (Class 2: The value of percent of control at 10^−7 M was from 40% to 60% or the value of IC′50 was from 50 nM to 200 nM.)
CN(C)c1cc(N[C@H]2CC[C@@H](NC(=O)Nc3ccc4c(c3)OCCO4)CC2)nc2ccccc12 [compound 2161] | 3 (Class 3 The value of percent of control at 10^−7 M was more than 60% or the value of IC50 was more than 200 nM.)
CC(C)c1cc(Br)c(NC(=O)N[C@H]2CC[C@@H](Nc3cc(N(C)C)c4ccccc4n3)CC2)c(Br)c1 [compound 2162] | 3 (Class 3 The value of percent of control at 10^−7 M was more than 60% or the value of IC50 was more than 200 nM.)
COc1ccc(NC(=O)N[C@H]2CC[C@@H](Nc3cc(N(C)C)c4ccccc4n3)CC2)cc1OC1CCCC1 [compound 2163] | 3 (Class 3 The value of percent of control at 10^−7 M was more than 60% or the value of IC50 was more than 200 nM.)
CN(C)c1cc(N[C@H]2CC[C@@H](NC(=O)Nc3ccc4c(c3)OCCCO4)CC2)nc2ccccc12 [compound 2164] | 3 (Class 3 The value of percent of control at 10^−7 M was more than 60% or the value of IC50 was more than 200 nM.)
CCCCc1ccc(NC(=O)N[C@H]2CC[C@@H](Nc3cc(N(C)C)c4ccccc4n3)CC2)c(C)c1 [compound 2165] | 3 (Class 3 The value of percent of control at 10^−7 M was more than 60% or the value of IC50 was more than 200 nM.)
Cc1onc(-c2ccccc2)c1NC(=O)N[C@H]1CC[C@@H](Nc2cc(N(C)C)c3ccccc3n2)CC1 [compound 2166] | 3 (Class 3 The value of percent of control at 10^−7 M was more than 60% or the value of IC50 was more than 200 nM.)
CN(C)c1cc(N[C@H]2CC[C@@H](NC(=S)Nc3ccc(Br)cc3)CC2)nc2ccccc12 [compound 2167] | 3 (Class 3 The value of percent of control at 10^−7 M was more than 60% or the value of IC50 was more than 200 nM.)
CN(C)c1cc(N[C@H]2CC[C@@H](NC(=S)Nc3ccc(C#N)cc3)CC2)nc2ccccc12 [compound 2168] | 3 (Class 3 The value of percent of control at 10^−7 M was more than 60% or the value of IC50 was more than 200 nM.)
CN(C)c1cc(N[C@H]2CC[C@@H](NC(=S)Nc3ccc(Cl)cc3Cl)CC2)nc2ccccc12 [compound 2169] | 3 (Class 3 The value of percent of control at 10^−7 M was more than 60% or the value of IC50 was more than 200 nM.)
COc1ccc(NC(=S)N[C@H]2CC[C@@H](Nc3cc(N(C)C)c4ccccc4n3)CC2)c(OC)c1 [compound 2170] | 2 (Class 2: The value of percent of control at 10^−7 M was from 40% to 60% or the value of IC′50 was from 50 nM to 200 nM.)
Cc1cccc(C)c1NC(=S)N[C@H]1CC[C@@H](Nc2cc(N(C)C)c3ccccc3n2)CC1 [compound 2171] | 3 (Class 3 The value of percent of control at 10^−7 M was more than 60% or the value of IC50 was more than 200 nM.)
CCc1cccc(C(C)C)c1NC(=S)N[C@H]1CC[C@@H](Nc2cc(N(C)C)c3ccccc3n2)CC1 [compound 2172] | 3 (Class 3 The value of percent of control at 10^−7 M was more than 60% or the value of IC50 was more than 200 nM.)
COc1ccccc1NC(=S)N[C@H]1CC[C@@H](Nc2cc(N(C)C)c3ccccc3n2)CC1 [compound 2173] | 3 (Class 3 The value of percent of control at 10^−7 M was more than 60% or the value of IC50 was more than 200 nM.)
CN(C)c1cc(N[C@H]2CC[C@@H](NC(=S)Nc3cccc4ccccc34)CC2)nc2ccccc12 [compound 2174] | 3 (Class 3 The value of percent of control at 10^−7 M was more than 60% or the value of IC50 was more than 200 nM.)
COc1cc(NC(=S)N[C@H]2CC[C@@H](Nc3cc(N(C)C)c4ccccc4n3)CC2)cc(OC)c1OC [compound 2175, N-(cis-4-{[4-(dimethylamino)quinolin-2-yl]amino}cyclohexyl)-N′-(3,4,5-trimethoxyphenyl)thiourea] | 1 (Class 1: The value of percent of control at 10^−7 M was less than 40% or the value of IC50 was less than 50 nM.)
COc1ccc(NC(=S)N[C@H]2CC[C@@H](Nc3cc(N(C)C)c4ccccc4n3)CC2)cc1OC [compound 2176] | 3 (Class 3 The value of percent of control at 10^−7 M was more than 60% or the value of IC50 was more than 200 nM.)
CN(C)c1cc(N[C@H]2CC[C@@H](NC(=S)Nc3ccc(N(C)C)c4ccccc34)CC2)nc2ccccc12 [compound 2177, N-[4-(dimethylamino)-1-naphthyl]-N′-(cis-4-{[4-(dimethylamino)quinolin-2-yl]amino}cyclohexyl)thiourea] | 2 (Class 2: The value of percent of control at 10^−7 M was from 40% to 60% or the value of IC′50 was from 50 nM to 200 nM.)
CCc1ccccc1NC(=S)N[C@H]1CC[C@@H](Nc2cc(N(C)C)c3ccccc3n2)CC1 [compound 2178] | 3 (Class 3 The value of percent of control at 10^−7 M was more than 60% or the value of IC50 was more than 200 nM.)
CN(C)c1ccnc(N[C@H]2CC[C@@H](NC(=O)Nc3ccccc3Cl)CC2)n1 [compound 2179] | 3 (Class 3 The value of percent of control at 10^−7 M was more than 60% or the value of IC50 was more than 200 nM.)
Cc1cccc(C)c1NC(=O)N[C@H]1CC[C@@H](Nc2nccc(N(C)C)n2)CC1 [compound 2180] | 3 (Class 3 The value of percent of control at 10^−7 M was more than 60% or the value of IC50 was more than 200 nM.)

Compound | class
CN(C)c1ccnc(N[C@H]2CC[C@@H](NC(=O)Nc3ccc(F)cc3F)CC2)n1 [compound 2181] | 3 (Class 3 The value of percent of control at 10^−7 M was more than 60% or the value of IC50 was more than 200 nM.)
CCc1cccc(C)c1NC(=O)N[C@H]1CC[C@@H](Nc2nccc(N(C)C)n2)CC1 [compound 2182] | 3 (Class 3 The value of percent of control at 10^−7 M was more than 60% or the value of IC50 was more than 200 nM.)
CN(C)c1ccnc(N[C@H]2CC[C@@H](NC(=O)Nc3ccc(F)cc3)CC2)n1 [compound 2184] | 3 (Class 3 The value of percent of control at 10^−7 M was more than 60% or the value of IC50 was more than 200 nM.)
CSc1ccc(NC(=O)N[C@H]2CC[C@@H](Nc3nccc(N(C)C)n3)CC2)cc1 [compound 2185] | 3 (Class 3 The value of percent of control at 10^−7 M was more than 60% or the value of IC50 was more than 200 nM.)
CN(C)c1ccnc(N[C@H]2CC[C@@H](NC(=O)Nc3ccccc3C(F)(F)F)CC2)n1 [compound 2186] | 3 (Class 3 The value of percent of control at 10^−7 M was more than 60% or the value of IC50 was more than 200 nM.)
Cc1cc(C)c(NC(=O)N[C@H]2CC[C@@H](Nc3nccc(N(C)C)n3)CC2)c(C)c1 [compound 2187, N-(cis-4-{[4-(dimethylamino)pyrimidin-2-yl]amino}cyclohexyl)-N′-mesitylurea] | 2 (Class 2: The value of percent of control at 10^−7 M was from 40% to 60% or the value of IC′50 was from 50 nM to 200 nM.)
Cc1ccccc1NC(=O)N[C@H]1CC[C@@H](Nc2nccc(N(C)C)n2)CC1 [compound 2188] | 3 (Class 3 The value of percent of control at 10^−7 M was more than 60% or the value of IC50 was more than 200 nM.)
CN(C)c1ccnc(N[C@H]2CC[C@@H](NC(=O)Nc3c(Cl)cc(Cl)cc3Cl)CC2)n1 [compound 2189, N-(cis-4-{[4-(dimethylamino)pyrimidin-2-yl]amino}cyclohexyl)-N′-(2,4,6-trichlorophenyl)urea] | 1 (Class 1: The value of percent of control at 10^−7 M was less than 40% or the value of IC50 was less than 50 nM.)
CN(C)c1ccnc(N[C@H]2CC[C@@H](NC(=O)Nc3c(F)cc(Br)cc3Br)CC2)n1 [compound 2191, N-(2,4-dibromo-6-fluorophenyl)-N′-(cis-4-{[4-(dimethylamino)pyrimidin-2-yl]amino}cyclohexyl)urea] | 1 (Class 1: The value of percent of control at 10^−7 M was less than 40% or the value of IC50 was less than 50 nM.)
CCc1cccc(CC)c1NC(=O)N[C@H]1CC[C@@H](Nc2nccc(N(C)C)n2)CC1 [compound 2192] | 3 (Class 3 The value of percent of control at 10^−7 M was more than 60% or the value of IC50 was more than 200 nM.)
CN(C)c1ccnc(N[C@H]2CC[C@@H](NC(=O)Nc3c(Cl)cccc3C(F)(F)F)CC2)n1 [compound 2193] | 3 (Class 3 The value of percent of control at 10^−7 M was more than 60% or the value of IC50 was more than 200 nM.)
Cc1cccc(Cl)c1NC(=O)N[C@H]1CC[C@@H](Nc2nccc(N(C)C)n2)CC1 [compound 2194] | 3 (Class 3 The value of percent of control at 10^−7 M was more than 60% or the value of IC50 was more than 200 nM.)
CN(C)c1ccnc(N[C@H]2CC[C@@H](NC(=O)NCc3ccccc3Cl)CC2)n1 [compound 2195] | 3 (Class 3 The value of percent of control at 10^−7 M was more than 60% or the value of IC50 was more than 200 nM.)
CCc1cccc(C(C)C)c1NC(=O)N[C@H]1CC[C@@H](Nc2nccc(N(C)C)n2)CC1 [compound 2196] | 3 (Class 3 The value of percent of control at 10^−7 M was more than 60% or the value of IC50 was more than 200 nM.)
CCc1ccccc1NC(=O)N[C@H]1CC[C@@H](Nc2nccc(N(C)C)n2)CC1 [compound 2197] | 3 (Class 3 The value of percent of control at 10^−7 M was more than 60% or the value of IC50 was more than 200 nM.)
CN(C)c1ccnc(N[C@H]2CC[C@@H](NC(=O)Nc3ccccc3I)CC2)n1 [compound 2198] | 3 (Class 3 The value of percent of control at 10^−7 M was more than 60% or the value of IC50 was more than 200 nM.)
Cc1cccc(C(C)C)c1NC(=O)N[C@H]1CC[C@@H](Nc2nccc(N(C)C)n2)CC1 [compound 2199] | 3 (Class 3 The value of percent of control at 10^−7 M was more than 60% or the value of IC50 was more than 200 nM.)
CC(C)c1ccccc1NC(=O)N[C@H]1CC[C@@H](Nc2nccc(N(C)C)n2)CC1 [compound 2200] | 3 (Class 3 The value of percent of control at 10^−7 M was more than 60% or the value of IC50 was more than 200 nM.)
Cc1c(NC(=O)N[C@H]2CC[C@@H](Nc3nccc(N(C)C)n3)CC2)cccc1[N+](=O)[O-] [compound 2201] | 3 (Class 3 The value of percent of control at 10^−7 M was more than 60% or the value of IC50 was more than 200 nM.)
CCCc1ccccc1NC(=O)N[C@H]1CC[C@@H](Nc2nccc(N(C)C)n2)CC1 [compound 2202] | 3 (Class 3 The value of percent of control at 10^−7 M was more than 60% or the value of IC50 was more than 200 nM.)
